Columns and labels:
Experiment in all cases: relative viability (nuclei count vs DMSO), 5 days (fraction); higher = more cells survive
Tozasertib + Linsitinib = compound: Cc1cc(Nc2cc(N3CCN(C)CC3)nc(Sc3ccc(NC(=O)C4CC4)cc3)n2)n[nH]1 [Tozasertib] + C[C@]1(O)C[C@@H](c2nc(-c3ccc4ccc(-c5ccccc5)nc4c3)c3c(N)nccn32)C1 [Linsitinib] (partner 1 µM)
Summary of the method: (§1)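 Lung cancer cell lines in 1536-well plates got either a single drug or a fixed anchor-drug dose together with five library-drug doses (not always all listed) in √10 steps, by pin tool, on the day after seeding. Nuclei were counted after 5 days, and relative viability is the treated-to-vehicle ratio of nuclei counts. Values are medians of duplicate plates.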

Tozasertib + Pemetrexed = compound: Cc1cc(Nc2cc(N3CCN(C)CC3)nc(Sc3ccc(NC(=O)C4CC4)cc3)n2)n[nH]1 [Tozasertib] + Nc1nc2[nH]cc(CCc3ccc(C(=O)N[C@@H](CCC(=O)O)C(=O)O)cc3)c2c(=O)[nH]1 [Pemetrexed] (partner 0.2 µM)
Summary of the method: as §1

Tozasertib + Decitabine = compound: Cc1cc(Nc2cc(N3CCN(C)CC3)nc(Sc3ccc(NC(=O)C4CC4)cc3)n2)n[nH]1 [Tozasertib] + Nc1ncn([C@H]2C[C@H](O)[C@@H](CO)O2)c(=O)n1 [Decitabine] (partner 2 µM)
Summary of the method: as §1

Tozasertib + AZD7762 = compound: Cc1cc(Nc2cc(N3CCN(C)CC3)nc(Sc3ccc(NC(=O)C4CC4)cc3)n2)n[nH]1 [Tozasertib] + NC(=O)Nc1cc(-c2cccc(F)c2)sc1C(=O)N[C@H]1CCCNC1 [AZD7762] (partner 0.2 µM)
Summary of the method: as §1

Tozasertib + Crizotinib = compound: Cc1cc(Nc2cc(N3CCN(C)CC3)nc(Sc3ccc(NC(=O)C4CC4)cc3)n2)n[nH]1 [Tozasertib] + C[C@@H](Oc1cc(-c2cnn(C3CCNCC3)c2)cnc1N)c1c(Cl)ccc(F)c1Cl [Crizotinib] (partner 1 µM)
Summary of the method: as §1

Row | Cell Line | relative viability (Tozasertib + Linsitinib; first compound 0.004 µM) | relative viability (Tozasertib + Linsitinib; first compound 0.01265 µM) | relative viability (Tozasertib + Linsitinib; first compound 0.04 µM) | relative viability (Tozasertib + Linsitinib; first compound 0.1265 µM) | relative viability (Tozasertib + Pemetrexed; first compound 0.004 µM) | relative viability (Tozasertib + Pemetrexed; first compound 0.01265 µM) | relative viability (Tozasertib + Pemetrexed; first compound 0.04 µM) | relative viability (Tozasertib + Pemetrexed; first compound 0.1265 µM) | relative viability (Tozasertib + Decitabine; first compound 0.004 µM) | relative viability (Tozasertib + Decitabine; first compound 0.01265 µM) | relative viability (Tozasertib + Decitabine; first compound 0.04 µM) | relative viability (Tozasertib + Decitabine; first compound 0.1265 µM) | relative viability (Tozasertib + AZD7762; first compound 0.004 µM) | relative viability (Tozasertib + AZD7762; first compound 0.01265 µM) | relative viability (Tozasertib + AZD7762; first compound 0.04 µM) | relative viability (Tozasertib + AZD7762; first compound 0.1265 µM) | relative viability (Tozasertib + Crizotinib; first compound 0.004 µM) | relative viability (Tozasertib + Crizotinib; first compound 0.04 µM) | relative viability (Tozasertib + Crizotinib; first compound 0.1265 µM) | relative viability (Tozasertib + Crizotinib; first compound 0.01265 µM)
1 | EKVX | 0.812 | 0.975 | 1.18 | 0.913 | 0.371 | 0.351 | 0.382 | 0.351 | 0.265 | 0.345 | 0.354 | 0.316 | 0.703 | 0.584 | 0.572 | 0.236 | 0.766 | 0.932 | 0.802 | 
2 | NCI-H1793 | 0.909 | 0.764 | 0.853 | 0.625 | 1.02 |  | 1.16 | 0.458 | 0.555 | 0.495 | 0.508 | 0.397 | 0.405 | 0.425 | 0.59 | 0.486 |  |  |  | 
3 | NCI-H2023 | 0.626 | 0.633 | 0.694 | 0.628 | 0.239 | 0.241 | 0.246 | 0.213 | 0.223 | 0.237 | 0.217 | 0.169 |  |  |  |  | 0.717 | 0.611 | 0.403 | 0.704
4 | A549 | 0.461 | 0.511 | 0.71 | 0.33 |  |  |  |  | 0.27 | 0.266 | 0.282 | 0.199 |  |  |  |  | 0.839 | 0.393 | 0.0848 | 0.745
5 | HCC-15 | 0.893 | 0.778 | 0.882 | 0.734 | 0.232 | 0.234 | 0.228 | 0.228 | 0.66 | 0.496 | 0.64 | 0.339 | 1.49 | 1.06 | 1.26 | 0.964 | 0.872 | 0.738 | 0.773 | 0.85
6 | LCLC-103H | 1.07 | 1.03 | 0.987 | 1.34 | 0.482 | 0.46 | 0.444 | 0.45 | 0.689 | 0.621 | 0.775 | 0.683 | 0.724 | 0.842 | 0.846 | 0.732 | 0.993 | 1.1 | 1.07 | 1.05
7 | NCI-H1563 | 1.26 | 1.2 | 1.14 | 1.12 | 0.816 | 0.845 | 0.823 | 0.615 |  |  |  |  |  |  |  |  | 0.843 | 0.934 | 0.84 | 0.843
8 | NCI-H2228 | 0.526 |  | 0.766 | 0.557 | 0.319 | 0.32 | 0.376 | 0.322 |  |  |  |  |  |  |  |  | 0.487 | 0.452 | 0.186 | 
9 | NCI-H520 | 1.07 | 0.952 | 0.978 | 0.472 | 0.743 | 0.789 | 0.633 | 0.413 | 0.533 | 0.449 | 0.467 | 0.296 |  |  |  |  | 1.31 | 0.484 | 0.355 | 0.742
10 | COR-L 105 | 1.15 | 1.15 | 1.02 | 0.868 | 1.05 | 1.14 | 1.23 | 1.15 | 0.717 | 0.61 | 0.69 | 0.558 |  |  |  |  |  | 0.771 | 0.458 | 0.765
11 | SW 1573 | 0.76 | 0.901 |  | 0.517 | 0.793 | 0.796 | 0.848 | 0.212 | 0.351 | 0.463 | 0.544 | 0.176 |  |  |  |  | 0.782 | 0.762 | 0.273 | 0.706
12 | NCI-H2009 | 1.19 | 1.22 | 1.15 | 1.19 | 1 | 1.03 | 0.985 | 0.986 | 0.401 | 0.352 | 0.416 | 0.359 |  |  |  |  | 1.06 | 0.988 | 0.847 | 1.06
13 | ABC-1 | 0.831 |  | 0.554 | 0.767 |  |  |  |  | 0.989 | 1.03 | 0.539 | 0.44 | 1.01 | 0.789 |  | 1.16 | 1.21 | 0.565 | 0.249 | 0.992
14 | NCI-H2342 |  |  |  |  | 0.809 | 0.778 | 0.744 | 0.759 | 0.678 | 0.738 | 0.723 | 0.766 | 0.578 | 0.532 | 0.514 | 0.398 |  |  |  | 
15 | NCI-H727 | 0.258 | 0.287 | 0.368 | 0.236 |  |  |  |  | 0.942 |  | 0.803 | 0.645 | 0.446 | 0.481 | 0.716 | 0.455 | 0.683 | 0.787 | 0.402 | 0.783
16 | NCI-H1650 |  |  |  |  | 0.334 | 0.374 | 0.381 | 0.385 | 0.351 | 0.364 | 0.404 | 0.307 |  |  |  |  |  | 0.919 |  | 1.01
17 | NCI-H2170 |  |  |  |  | 0.289 | 0.241 | 0.293 | 0.271 | 0.487 | 0.446 | 0.474 | 0.425 | 0.81 | 0.893 | 0.848 | 0.788 | 1.15 | 1.02 | 0.736 | 1.19
18 | ChaGo-K-1 |  |  |  |  | 0.255 | 0.268 | 0.254 | 0.264 | 0.506 | 0.463 | 0.49 | 0.446 | 0.902 | 0.851 | 0.859 | 0.576 | 1.19 | 0.957 | 0.331 | 1.12
19 | SK-MES-1 | 1.1 | 1.02 | 1.14 | 1.1 | 0.907 | 0.892 | 1.02 | 0.769 | 0.319 | 0.376 | 0.434 | 0.316 |  |  |  |  | 1.04 | 0.94 | 0.901 | 0.929
20 | NCI-H661 | 0.61 | 0.564 | 0.497 | 0.402 | 1.01 | 0.833 | 0.933 | 0.561 | 0.65 | 0.599 | 0.569 | 0.304 |  |  |  |  | 1.06 | 0.885 | 0.605 | 1.05
21 | COR-L23 | 0.99 | 0.906 | 0.846 | 0.39 | 0.206 | 0.206 | 0.187 | 0.179 | 0.42 | 0.384 | 0.439 | 0.247 |  |  |  |  | 0.695 | 0.453 | 0.412 | 0.667
